Eleven substances from US8178506B2, “Oligomeric compounds and compositions for use in modulation of small non-coding RNAs” (Regulus Therapeutics Inc., priority 2003, dated 2012) can be followed below.

In the oligonucleotide strings, read from the 5' end, every base follows the letter of its sugar. An asterisk marks phosphorothioate; unmarked linkages are phosphodiester. Other units and linkages are bracketed, terminal groups are in braces. A string of capitals states the bases alone. e = 2'-O-(2-methoxyethyl) (MOE); [5mC] = 5-methylcytosine

One series concerns adipocytes. Briefly: Triglyceride accumulation assay in adipocytes. It is filed as cell-based, human.
In another series the test system is aP2. The series can be described thus: aP2 mRNA expression in adipocytes (real-time PCR). The class given is cell-based, human. As to conditions: for AP2 (mRNA expression): adipocytes, 250 nM oligomeric compound, day nine post-transfection, relative to control (1.0); for AP2 mRNA / aP2 mRNA: differentiating adipocytes transfected with oligomeric compound; for aP2 mRNA: Table 75.

For another series, the system named is HSL. Briefly: HSL mRNA expression in adipocytes (real-time PCR). The class given is cell-based, human. As to conditions: for HSL (mRNA expression): adipocytes, 250 nM oligomeric compound, day nine post-transfection, relative to control (1.0); for HSL mRNA: differentiating adipocytes transfected with oligomeric compound. (In general: Quantitative PCR measures a nucleic acid by following its amplification.)

A further series has as its system Glut4. The series can be described thus: Glut4 mRNA expression in adipocytes (real-time PCR). It is filed as cell-based, human. As to conditions: for Glut4 (mRNA expression): adipocytes, 250 nM oligomeric compound, day nine post-transfection, relative to control (1.0); for GLUT4 mRNA: differentiating adipocytes transfected with oligomeric compound.
In the next series the test system is PPARγ. Briefly: PPARγ mRNA expression in adipocytes (real-time PCR). As to conditions: for PPAR gamma (mRNA expression): adipocytes, 250 nM oligomeric compound, day nine post-transfection, relative to control (1.0); for PPAR gamma mRNA: differentiating adipocytes transfected with oligomeric compound. The class given is cell-based, human.
Another series concerns HuVECs. The series can be described thus: Endothelial tube formation assay in HuVECs. As to conditions: 75 nM oligomeric compound.
Where [1] appears, read: adipocytes, 250 nM oligomeric compound, relative to control (1.0), Table 15.
Where [2] appears, read: differentiating adipocytes transfected with oligomeric compound.
Setting [3] is: differentiating adipocytes transfected with oligomeric compound, Table 75.

Experimental for HuVECs: In some embodiments, HUVECs are used to measure the effects of oligomeric compounds of the invention on endothelial tube formation activity. The tube formation assay is performed using an in vitro Angiogenesis Assay Kit (Chemicon International, Temecula, Calif.).
Untreated control cells receive LIPOFECTIN™ only.
Approximately fifty hours after transfection, cells are transferred to 96-well plates coated with ECMatrix™ (Chemicon International). Under these conditions, untreated HUVECs form tube-like structures. After an overnight incubation at 37° C., treated and untreated cells are inspected by light microscopy. Tube formation in cells treated with oligomeric compounds is compared to that in untreated control cells. Individual wells are assigned discrete scores from 1 to 5 depending on the extent of tube formation. A score of 1 refers to a well with no tube formation while a score of 5 is given to wells where all cells are forming an extensive tubular network.
In one embodiment, primary human umbilical vein endothelial cells (HuVECs) were used to measure the effects of oligomeric compounds targeted to miRNAs on tube formation activity. HuVECs were routinely cultured in EBM (Clonetics Corporation, Walkersville, Md.) supplemented with SingleQuots supplements (Clonetics Corporation, Walkersville, Md.). […] HuVECs are plated at 3000 cells/well in 96-well plates. One day later, cells are transfected with oligomeric compounds. The tube formation assay is performed using an in vitro Angiogenesis Assay Kit (Chemicon International, Temecula, Calif.).
ISIS 29248 and ISIS 196103 are chimeric 5-10-52′-MOE gapmer oligonucleotides. […] All cytidine residues are 5-methylcytidines. ISIS 342672 (SEQ ID NO: 789) contains 13 mismatches with respect to the mature mir-143 miRNA, and was also used as a negative control. ISIS 342672 is a uniform 2′-MOE phosphorothioate oligomeric compound 22 nucleotides in length. All cytidine residues are 5-methylcytidines.
Oligomeric compound was mixed with LIPOFECTIN™ (Invitrogen Life Technologies, Carlsbad, Calif.) in OPTI-MEM™ (Invitrogen Life Technologies, Carlsbad, Calif.) to achieve a final concentration of 75 nM of oligomeric compound and 2.25 μg/mL LIPOFECTIN™. Before adding to cells, the oligomeric compound, LIPOFECTIN™ and OPTI-MEM™ were mixed thoroughly and incubated for 0.5 hrs. Untreated control cells received LIPOFECTIN™ only. […] Compounds targeted to miRNAs were tested in triplicate, and ISIS 29848 was tested in up to six replicates. […] 100 μL of full growth medium was added to each well. Fifty hours after transfection, cells are transferred to 96-well plates coated with ECMa-trix™ (Chemicon Inter-national). Under these conditions, untreated HuVECs form tube-like structures.

As to “327892 (antisense eA*e[5mC]*eT*eT*eT*e[5mC]*eG*eG*eT*eT*eA*eT*e[5mC]*eT*eA*eG*e[5mC]*eT*eT*eT*eA) [compound 327892]”, the “TG (triglyceride accumulation)” value in the series with adipocytes (setting [1]) was found to be 0.42. Also, the “AP2 (mRNA expression)” value in the series on aP2 (Table 15) was found to be 0.31. In the series with HSL (Table 15), the “HSL (mRNA expression)” value was 0.25. The “Glut4 (mRNA expression)” value with Glut4 (Table 15) came to 0.07. For the same substance, the “PPAR gamma (mRNA expression)” value with PPARγ (Table 15) was 0.32. Also, the “% Activity Relative to UTC (tube formation)” value (from here on “% Activity Relative to UTC”) with HuVECs (Table 56) is on record as 57.1%.
Take “327956 (antisense e[5mC]*eA*e[5mC]*eA*eG*eT*eT*eG*e[5mC]*e[5mC]*eA*eG*e[5mC]*eT*eG*eA*eG*eA*eT*eT*eA) [compound 327956]”: the “TG (triglyceride accumulation)” value in the series with adipocytes (setting [2]) is reported as 80 percentage of untreated control (UTC). For the same substance, the “AP2 mRNA” value in the series with aP2 is given as 102 percentage of untreated control (UTC). The “HSL mRNA” value in the series with HSL was 90 percentage of untreated control (UTC). Further, the “GLUT4 mRNA” value in the series on Glut4 is given as 69 percentage of untreated control (UTC). Further, the “PPAR gamma mRNA” value with PPARγ is given as 91 percentage of untreated control (UTC). For the same substance, the “% Activity Relative to UTC” value with HuVECs (Table 59) is recorded as 46.7%.
For the substance “327910 (antisense eT*eG*eA*eT*eA*eG*e[5mC]*e[5mC]*e[5mC]*eT*eG*eT*eA*e[5mC]*eA*eA*eT*eG*e[5mC]*eT*eG*e[5mC]*eT) [compound 327910]”, in the series on adipocytes (setting [3]), the “TG (triglyceride accumulation)” value is given as 24 percentage of untreated control (UTC). For the same substance, in the series with aP2, the “aP2 mRNA” value was 35 percentage of untreated control (UTC). In the series on HSL (Table 75), the “HSL mRNA” value was 32 percentage of untreated control (UTC). In the series on Glut4 (Table 75), the “GLUT4 mRNA” value was 16 percentage of untreated control (UTC). Besides, in the series with PPARγ (Table 75), the “PPAR gamma mRNA” value is 39 percentage of untreated control (UTC). Moreover, the “% Activity Relative to UTC” value with HuVECs (Table 57) amounted to 55.2%.
Take “327923 (antisense eG*eA*eA*eA*eG*eA*eG*eA*e[5mC]*e[5mC]*eG*eG*eT*eT*e[5mC]*eA*e[5mC]*eT*eG*eT*eG*eA) [compound 327923]”: the “TG (triglyceride accumulation)” value in the series with adipocytes (setting [3]) was 88 percentage of untreated control (UTC). Further, in the series on aP2, the “aP2 mRNA” value is listed as 65 percentage of untreated control (UTC). The “HSL mRNA” value with HSL (Table 75) is reported as 64 percentage of untreated control (UTC). The “GLUT4 mRNA” value in the series with Glut4 (Table 75) is reported as 54 percentage of untreated control (UTC). Besides, the “PPAR gamma mRNA” value in the series on PPARγ (Table 75) was 77 percentage of untreated control (UTC). The “% Activity Relative to UTC” value in the series on HuVECs (Table 57) is 48.3%.
As to “327900 (antisense e[5mC]*eT*eG*e[5mC]*e[5mC]*eT*eG*eT*e[5mC]*eT*eG*eT*eG*e[5mC]*e[5mC]*eT*eG*e[5mC]*eT*eG*eT) [compound 327900]”, the “TG (triglyceride accumulation)” value with adipocytes (setting [3]) is recorded as 26 percentage of untreated control (UTC). Further, the “aP2 mRNA” value in the series with aP2 is 32 percentage of untreated control (UTC). For the same substance, the “HSL mRNA” value in the series on HSL (Table 75) is given as 21 percentage of untreated control (UTC). The “GLUT4 mRNA” value in the series with Glut4 (Table 75) is reported as 12 percentage of untreated control (UTC). Besides, in the series with PPARγ (Table 75), the “PPAR gamma mRNA” value is 55 percentage of untreated control (UTC). The “% Activity Relative to UTC” value in the series with HuVECs (Table 57) is 55.2%.
In the case of “327954 (antisense eA*e[5mC]*eA*eA*eA*eG*eT*eT*e[5mC]*eT*eG*eT*eG*eA*eT*eG*e[5mC]*eA*e[5mC]*eT*eG*eA) [compound 327954]”, the “TG (triglyceride accumulation)” value with adipocytes (setting [1]) is listed as 0.58. In addition, the “AP2 (mRNA expression)” value with aP2 (Table 15) was found to be 0.95. For the same substance, the “HSL (mRNA expression)” value in the series on HSL (Table 15) was 1.03. In addition, the “Glut4 (mRNA expression)” value with Glut4 (Table 15) was 0.92. In the series with PPARγ (Table 15), the “PPAR gamma (mRNA expression)” value worked out at 0.73. Further, the “% Activity Relative to UTC” value in the series with HuVECs (Table 59) is 53.3%.
For the substance “327917 (antisense eT*e[5mC]*eA*eA*e[5mC]*eA*eT*e[5mC]*eA*eG*eT*e[5mC]*eT*eG*eA*eT*eA*eA*eG*e[5mC]*eT*eA) [compound 327917]”, the “TG (triglyceride accumulation)” value in the series with adipocytes (setting [3]) is on record as 26 percentage of untreated control (UTC). Moreover, the “aP2 mRNA” value with aP2 is 32 percentage of untreated control (UTC). Besides, in the series with HSL (Table 75), the “HSL mRNA” value was 26 percentage of untreated control (UTC). Also, the “GLUT4 mRNA” value with Glut4 (Table 75) is listed as 15 percentage of untreated control (UTC). In addition, the “PPAR gamma mRNA” value in the series with PPARγ (Table 75) is 54 percentage of untreated control (UTC). Moreover, the “% Activity Relative to UTC” value with HuVECs (Table 57) turned out to be 82.8%.
As for “327904 (antisense eA*e[5mC]*eT*e[5mC]*eA*e[5mC]*e[5mC]*eG*eA*e[5mC]*eA*eG*e[5mC]*eG*eT*eT*eG*eA*eA*eT*eG*eT*eT) [compound 327904]”, in the series on adipocytes (setting [2]), the “TG (triglyceride accumulation)” value is recorded as 56 percentage of untreated control (UTC). In addition, the “AP2 mRNA” value in the series with aP2 is on record as 65 percentage of untreated control (UTC). Moreover, the “HSL mRNA” value in the series on HSL was 42 percentage of untreated control (UTC). Moreover, in the series with Glut4, the “GLUT4 mRNA” value is reported as 40 percentage of untreated control (UTC). For the same substance, the “PPAR gamma mRNA” value in the series on PPARγ is on record as 54 percentage of untreated control (UTC). Moreover, in the series with HuVECs (Table 57), the “% Activity Relative to UTC” value amounted to 89.7%.
On to “327876 (antisense eA*eA*e[5mC]*eA*e[5mC]*eT*eG*eA*eT*eT*eT*e[5mC]*eA*eA*eA*eT*eG*eG*eT*eG*e[5mC]*eT*eA) [compound 327876]”, for which, in the series on adipocytes (setting [1]), the “TG (triglyceride accumulation)” value came out at 0.47. Further, the “AP2 (mRNA expression)” value with aP2 (Table 15) turned out to be 0.75. In addition, the “HSL (mRNA expression)” value with HSL (Table 15) was 0.47. The “Glut4 (mRNA expression)” value with Glut4 (Table 15) was determined as 0.36. For the same substance, in the series with PPARγ (Table 15), the “PPAR gamma (mRNA expression)” value was 0.57. The “% Activity Relative to UTC” value with HuVECs (Table 56) is 50.0%.
With “327919 (antisense eG*eA*eA*eA*e[5mC]*e[5mC]*e[5mC]*eA*eG*e[5mC]*eA*eG*eA*e[5mC]*eA*eA*eT*eG*eT*eA*eG*e[5mC]*eT) [compound 327919]”, the “TG (triglyceride accumulation)” value in the series with adipocytes (setting [1]) is 0.58; in the series with adipocytes (adipocytes, 250 nM oligomeric compound, relative to control (1.0), Table 16), 0.40. Moreover, the “AP2 (mRNA expression)” value was found to be 0.79 in the series on aP2 (Table 15) and 0.48 in the series with aP2 (Table 16). In addition, the “HSL (mRNA expression)” value is on record as 0.57 in the series with HSL (Table 15) and 0.37 in the series on HSL (Table 16). In addition, the “Glut4 (mRNA expression)” value with Glut4 (Table 15) was determined as 0.32; in the series with Glut4 (Table 16) it was 0.18. Further, the “PPAR gamma (mRNA expression)” value is 0.52 in the series with PPARγ (Table 15) and 0.57 in the series on PPARγ (Table 16). Further, in the series on HuVECs (Table 57), the “% Activity Relative to UTC” value is 103.5%.
As to “327907 (antisense eA*eG*e[5mC]*e[5mC]*eT*eA*eT*e[5mC]*e[5mC]*eT*eG*eG*eA*eT*eT*eA*e[5mC]*eT*eT*eG*eA*eA) [compound 327907]”, the “TG (triglyceride accumulation)” value with adipocytes (setting [3]) is given as 19 percentage of untreated control (UTC). For the same substance, the “aP2 mRNA” value in the series on aP2 is recorded as 29 percentage of untreated control (UTC). In the series with HSL (Table 75), the “HSL mRNA” value is recorded as 21 percentage of untreated control (UTC). In addition, the “GLUT4 mRNA” value in the series on Glut4 (Table 75) is on record as 6 percentage of untreated control (UTC). The “PPAR gamma mRNA” value with PPARγ (Table 75) is reported as 49 percentage of untreated control (UTC). For the same substance, the “% Activity Relative to UTC” value with HuVECs (Table 57) was found to be 62.1%.
